Activity calls are given as the source filed them. No rule for the calls is given here.
Tested on: CCRIS mutagenicity, Ames/micronucleus/aberration tests
Experiment: CCRIS mutagenicity studies
[1] = Test System: AMES SALMONELLA TYPHIMURIUM, Strain/Indicator: TA98, Metabolic Activation: NONE, Method: STANDARD PLATE
[2] = Test System: AMES SALMONELLA TYPHIMURIUM, Strain/Indicator: TA100, Metabolic Activation: NONE, Method: STANDARD PLATE
[3] = Test System: AMES SALMONELLA TYPHIMURIUM, Strain/Indicator: TA102, Metabolic Activation: NONE, Method: STANDARD PLATE
[4] = Test System: AMES SALMONELLA TYPHIMURIUM, Strain/Indicator: TA1535, Metabolic Activation: NONE, Method: STANDARD PLATE
[5] = Test System: AMES SALMONELLA TYPHIMURIUM, Strain/Indicator: TA1537, Metabolic Activation: NONE, Method: STANDARD PLATE
[6] = Test System: AMES SALMONELLA TYPHIMURIUM, Strain/Indicator: TA1538, Metabolic Activation: NONE, Method: STANDARD PLATE
[7] = Test System: AMES SALMONELLA TYPHIMURIUM, Strain/Indicator: TA98, Metabolic Activation: RAT, LIVER, S-9, AROCLOR 1254, Method: STANDARD PLATE
[8] = Test System: AMES SALMONELLA TYPHIMURIUM, Strain/Indicator: TA100, Metabolic Activation: RAT, LIVER, S-9, AROCLOR 1254, Method: STANDARD PLATE
[9] = Test System: AMES SALMONELLA TYPHIMURIUM, Strain/Indicator: TA1537, Metabolic Activation: RAT, LIVER, S-9, AROCLOR 1254, Method: STANDARD PLATE

Measured: mutagenic call

COc1cccc(/C=C/c2ccc([N+](=O)[O-])cc2)c1
active: Test System: AMES SALMONELLA TYPHIMURIUM, Strain/Indicator: TA98(NR), Metabolic Activation: NONE, Method: STANDARD PLATE active; positive | Test System: AMES SALMONELLA TYPHIMURIUM, Strain/Indicator: TA98(NR), Metabolic Activation: S-9, Method: STANDARD PLATE active; positive | [1] active; positive | Test System: AMES SALMONELLA TYPHIMURIUM, Strain/Indicator: TA98, Metabolic Activation: S-9, Method: STANDARD PLATE active; positive | Test System: AMES SALMONELLA TYPHIMURIUM, Strain/Indicator: TA100 (NR), Metabolic Activation: NONE, Method: STANDARD PLATE active; positive | Test System: AMES SALMONELLA TYPHIMURIUM, Strain/Indicator: TA100 (NR), Metabolic Activation: S-9, Method: STANDARD PLATE active; positive | [2] active; positive | Test System: AMES SALMONELLA TYPHIMURIUM, Strain/Indicator: TA100, Metabolic Activation: S-9, Method: STANDARD PLATE active; positive

[Cl][Sn]([Cl])([c]1ccccc1)[c]1ccccc1
inactive: Test System: AMES SALMONELLA TYPHIMURIUM, Strain/Indicator: TA98, Metabolic Activation: NONE, Method: SUSPENSION/PLATE inactive; negative | Test System: AMES SALMONELLA TYPHIMURIUM, Strain/Indicator: TA100, Metabolic Activation: NONE, Method: SUSPENSION/PLATE inactive; negative

CCN(CCCl)c1ccc(CCCNc2c3ccccc3nc3ccccc23)cc1
active: Test System: AMES SALMONELLA TYPHIMURIUM, Strain/Indicator: DG1593, Metabolic Activation: NONE, Method: STANDARD PLATE active; positive | [1] active; positive | [2] active; positive | Test System: AMES SALMONELLA TYPHIMURIUM, Strain/Indicator: TA104, Metabolic Activation: NONE, Method: STANDARD PLATE active; positive | Test System: AMES SALMONELLA TYPHIMURIUM, Strain/Indicator: TA1537 (PKM101), Metabolic Activation: NONE, Method: STANDARD PLATE active; positive | [5] active; positive | Test System: AMES SALMONELLA TYPHIMURIUM, Strain/Indicator: TA1977, Metabolic Activation: NONE, Method: STANDARD PLATE active; positive | Test System: AMES SALMONELLA TYPHIMURIUM, Strain/Indicator: TA1978 (PKM101), Metabolic Activation: NONE, Method: STANDARD PLATE active; positive | Test System: AMES SALMONELLA TYPHIMURIUM, Strain/Indicator: TA4001, Metabolic Activation: NONE, Method: STANDARD PLATE active; positive | Test System: AMES SALMONELLA TYPHIMURIUM, Strain/Indicator: TA4006, Metabolic Activation: NONE, Method: STANDARD PLATE active; positive
inactive: Test System: AMES SALMONELLA TYPHIMURIUM, Strain/Indicator: DG1588, Metabolic Activation: NONE, Method: STANDARD PLATE inactive; negative | Test System: AMES SALMONELLA TYPHIMURIUM, Strain/Indicator: DG1592, Metabolic Activation: NONE, Method: STANDARD PLATE inactive; negative | [3] inactive; negative | [4] inactive; negative | [6] inactive; negative | Test System: AMES SALMONELLA TYPHIMURIUM, Strain/Indicator: TA1975 (PKM101), Metabolic Activation: NONE, Method: STANDARD PLATE inactive; negative | Test System: AMES SALMONELLA TYPHIMURIUM, Strain/Indicator: TA1975, Metabolic Activation: NONE, Method: STANDARD PLATE inactive; negative | Test System: AMES SALMONELLA TYPHIMURIUM, Strain/Indicator: TA1978, Metabolic Activation: NONE, Method: STANDARD PLATE inactive; negative

CCCCNC(=O)c1cc(N)ccc1OC1CCCCC1
active: Test System: Ames Salmonella typhimurium, Strain/Indicator: TA98, Metabolic Activation: Rat, Liver, S-9, Phenobarbital and beta-naphthoflavone, Method: Preincubation active; positive. a hydroxylated form of pa7 appears to be the active component. | Test System: Ames Salmonella typhimurium, Strain/Indicator: TA100, Metabolic Activation: Rat, Liver, S-9, Phenobarbital and beta-naphthoflavone, Method: Preincubation active; positive. a hydroxylated form of pa7 appears to be the active component.
inactive: Test System: Ames Salmonella typhimurium, Strain/Indicator: TA98, Metabolic Activation: None, Method: Preincubation inactive; negative. data given only in abstract. | Test System: Ames Salmonella typhimurium, Strain/Indicator: TA100, Metabolic Activation: None, Method: Preincubation inactive; negative. data given only in abstract. | Test System: Ames Salmonella typhimurium, Strain/Indicator: TA102, Metabolic Activation: None, Method: Preincubation inactive; negative. data given only in abstract. | Test System: Ames Salmonella typhimurium, Strain/Indicator: TA1535, Metabolic Activation: None, Method: Preincubation inactive; negative. data given only in abstract. | Test System: Ames Salmonella typhimurium, Strain/Indicator: TA1537, Metabolic Activation: None, Method: Preincubation inactive; negative. data given only in abstract.

CN1CCN(N=O)CC1
active: Test System: CHINESE HAMSTER V-79, Strain/Indicator: V-79/8-AZAGUANINE, Metabolic Activation: RAT, LIVER, S-15, PHENOBARBITAL, Method: STANDARD PLATE active; positive

CN1CCC=C2c3nc(N)sc3CCC21 (centres undefined)
inactive: [1] inactive; negative | [2] inactive; negative | [4] inactive; negative | Test System: AMES SALMONELLA TYPHIMURIUM, Strain/Indicator: TA1535, Metabolic Activation: RAT, LIVER, S-9, AROCLOR 1254, Method: STANDARD PLATE inactive; negative | [5] inactive; negative | [9] inactive; negative | [6] inactive; negative
active: [7] active; positive | [8] active; positive

Cc1ccc2ccc3c(ccc4c5cccc(C)c5ccc43)c2c1
inactive: Test System: AMES SALMONELLA TYPHIMURIUM, Strain/Indicator: TA97, Metabolic Activation: RAT, LIVER, S-9, AROCLOR 1254, Method: STANDARD PLATE inactive; negative | [7] inactive; negative | [8] inactive; negative | Test System: AMES SALMONELLA TYPHIMURIUM, Strain/Indicator: TA102, Metabolic Activation: RAT, LIVER, S-9, AROCLOR 1254, Method: STANDARD PLATE inactive; negative | Test System: AMES SALMONELLA TYPHIMURIUM, Strain/Indicator: TA104, Metabolic Activation: RAT, LIVER, S-9, AROCLOR 1254, Method: STANDARD PLATE inactive; negative | [9] inactive; negative

CCN(CCCl)c1ccc(-c2nc3ccc(-c4nc5ccc(N6CCN(C)CC6)cc5[nH]4)cc3[nH]2)cc1
inactive: [1] inactive; negative | [2] inactive; negative | [3] inactive; negative

Oc1cccc2c1ccc1c3ccccc3ccc21
inactive: [7] inactive; negative | [2] inactive; negative

Cc1cc2c(c3ccc4ccccc4c13)CCC2
inactive: [2] inactive; negative | [8] inactive; negative

CC(C)Nc1nc(Cl)nc(NCC(=O)O)n1
inactive: End Point: In vivo micronucleus, Test System: Bone marrow erythrocytes, Species: Mouse, Strain/Sex: Crl:CD-1, Route: Gavage inactive; negative; proportion of pces per 1000 erythrocytes depressed

CCNc1cc2oc(=O)cc(C)c2cc1C
inactive: [6] inactive; negative | Test System: AMES SALMONELLA TYPHIMURIUM, Strain/Indicator: TA1538, Metabolic Activation: RAT, LIVER, S-9, AROCLOR 1254, Method: STANDARD PLATE inactive; negative

CCC(Cl)C(=O)O (centres undefined)
inactive: End Point: IN VITRO CHROMOSOMAL ABERRATIONS, Test System: CHL CELLS, Metabolic Activation: RAT, LIVER, S-9, SODIUM PHENOBARBITAL AND 5,6-BENZOFLAVONE inactive; negative
active: End Point: IN VITRO CHROMOSOMAL ABERRATIONS, Test System: CHL/IU CELLS, Metabolic Activation: NONE active; positive (structural changes) | End Point: IN VITRO MICRONUCLEUS, Test System: CHL/IU CELLS, Metabolic Activation: NONE active; positive

— PubChem BioAssay AID1259407 (Chemical Carcinogenesis Research Information System (CCRIS), 2018)
